Data taken from PubChem BioAssay AID248 (DTP/NCI, 2004).
Values joined by “and” are separate entries in the source; they are usually repeats but may differ in a detail not shown here. Equal entries are not always repeated. Toxic doses and inconclusive results are not listed.

System: L1210 leukemia ip in BDF1 mice, survival T/C
Assay: NCI In Vivo Anticancer Drug Screen. Data for tumor model L1210 Leukemia (intraperitoneal) in B6D2F1 (BDF1) mice
Details: endpoint: mean survival time, higher = longer survival
In short: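 Tumor was transplanted into mice, which were then dosed with test compound or vehicle alone. Survival was recorded for each group, and the treated figure was expressed relative to the control figure.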

[1] = dose: 100.0 mg/kg/injection, schedule: Q04DX003 (ip), vehicle: saline
[2] = dose: 200.0 mg/kg/injection, schedule: Q04DX003 (ip), vehicle: saline
[3] = dose: 400.0 mg/kg/injection, schedule: Q04DX003 (ip), vehicle: saline
[4] = dose: 100.0 mg/kg/injection, schedule: Q01DX009 (ip), vehicle: saline with Tween-80
[5] = dose: 100.0 mg/kg/injection, schedule: Q04DX003 (ip), vehicle: saline with Tween-80
[6] = dose: 200.0 mg/kg/injection, schedule: Q04DX003 (ip), vehicle: saline with Tween-80
[7] = dose: 400.0 mg/kg/injection, schedule: Q04DX003 (ip), vehicle: saline with Tween-80

## CC(C)CC(NC(=O)CNC(=O)OCc1ccccc1)C(=O)OCc1ccccc1 (configuration not stated)
dose: 100.0 mg/kg/injection, schedule: Q04DX003 (ip), vehicle: other
  T/C: 100 % of control
dose: 200.0 mg/kg/injection, schedule: Q04DX003 (ip), vehicle: other
  T/C: 108 % of control
dose: 400.0 mg/kg/injection, schedule: Q04DX003 (ip), vehicle: other
  T/C: 102 % of control

## CCOC(=O)c1ccc(NC(C)=O)o1
dose: 10.0 mg/kg/injection, schedule: Q01DX001 (ip), vehicle: carboxymethylcellulose (CMC)
  T/C: 107 % of control
dose: 20.0 mg/kg/injection, schedule: Q01DX001 (ip), vehicle: carboxymethylcellulose (CMC)
  T/C: 95 % of control
dose: 40.0 mg/kg/injection, schedule: Q01DX001 (ip), vehicle: carboxymethylcellulose (CMC)
  T/C: 103 % of control
dose: 80.0 mg/kg/injection, schedule: Q01DX001 (ip), vehicle: carboxymethylcellulose (CMC)
  T/C: 92 % of control

## CC(C)(CO)NCc1ccc(Cl)c(Cl)c1
dose: 100.0 mg/kg/injection, schedule: Q01DX009 (ip), vehicle: Klucel (hydroxypropylcellulose) (HPC)
  T/C: 98 % of control
[1]
  T/C: 106 % of control
dose: 200.0 mg/kg/injection, schedule: Q01DX009 (ip), vehicle: Klucel (hydroxypropylcellulose) (HPC)
  T/C: 102 % of control
[2]
  T/C: 97 % of control
[3]
  T/C: 97 % of control

## O=C(Cl)OCCOCCOC(=O)Cl
[1]
  T/C: 86 % of control
dose: 200.0 mg/kg/injection, schedule: Q01DX009 (ip), vehicle: saline
  T/C: 89 % of control
[2]
  T/C: 94 % of control
dose: 400.0 mg/kg/injection, schedule: Q01DX009 (ip), vehicle: saline
  T/C: 90 % of control
[3]
  T/C: 92 % of control

## CCCCCc1ccc(C(=O)O)cc1
dose: 25.0 mg/kg/injection, schedule: Q01DX009 (ip), vehicle: saline with Tween-80
  T/C: 103 % of control
dose: 25.0 mg/kg/injection, schedule: Q04DX003 (ip), vehicle: saline with Tween-80
  T/C: 106 % of control
dose: 50.0 mg/kg/injection, schedule: Q01DX009 (ip), vehicle: saline with Tween-80
  T/C: 98 % of control
dose: 50.0 mg/kg/injection, schedule: Q04DX003 (ip), vehicle: saline with Tween-80
  T/C: 101 % of control
[4]
  T/C: 97 % of control
[5]
  T/C: 98 % of control and 102 % of control

## CS(=O)C(Cl)C(O)c1ccccc1 (configuration not stated)
dose: 100.0 mg/kg/injection, schedule: Q03DX002 (ip), vehicle: saline with Tween-80
  T/C: 117 % of control
dose: 400.0 mg/kg/injection, schedule: Q03DX002 (ip), vehicle: saline with Tween-80
  T/C: 110 % of control

## Cc1cc2c3ccccc3ccc2[n+]2ccccc12
dose: 4.5 mg/kg/injection, schedule: Q01DX009 (ip), vehicle: acetone
  T/C: 115 % of control
dose: 4.5 mg/kg/injection, schedule: Q01DX009 (ip), vehicle: saline
  T/C: 100 % of control
dose: 9.0 mg/kg/injection, schedule: Q01DX009 (ip), vehicle: acetone
  T/C: 120 % of control
dose: 9.0 mg/kg/injection, schedule: Q01DX009 (ip), vehicle: saline
  T/C: 110 % of control
dose: 18.0 mg/kg/injection, schedule: Q01DX009 (ip), vehicle: acetone
  T/C: 115 % of control
dose: 18.0 mg/kg/injection, schedule: Q01DX009 (ip), vehicle: saline
  T/C: 120 % of control
dose: 100.0 mg/kg/injection, schedule: Q01DX001 (ip), vehicle: saline
  T/C: 107 % of control

## O=C(O)C1(Br)CC2CC1C1C2C2(Cl)C(Cl)=C(Cl)C1(Cl)C2(Cl)Cl (configuration not stated)
dose: 75.0 mg/kg/injection, schedule: Q01DX001 (ip), vehicle: other
  T/C: 96 % of control
dose: 150.0 mg/kg/injection, schedule: Q01DX001 (ip), vehicle: other
  T/C: 96 % of control
dose: 300.0 mg/kg/injection, schedule: Q01DX001 (ip), vehicle: other
  T/C: 96 % of control

## COc1ccc(CCNC(=O)CCN2C(=O)c3ccccc3C2=O)cc1OC
[4]
  T/C: 115 % of control
[5]
  T/C: 97 % of control
dose: 200.0 mg/kg/injection, schedule: Q01DX009 (ip), vehicle: saline with Tween-80
  T/C: 115 % of control
[6]
  T/C: 100 % of control
dose: 400.0 mg/kg/injection, schedule: Q01DX009 (ip), vehicle: saline with Tween-80
  T/C: 113 % of control
[7]
  T/C: 112 % of control

## C=CCNC(=O)Nc1cccc(O)c1
[5]
  T/C: 100 % of control
[6]
  T/C: 96 % of control
[7]
  T/C: 93 % of control

## OCC1OC(n2cnc3c(SCc4ccccc4)ncnc32)C(O)C1O (configuration not stated)
dose: 38.5 mg/kg/injection, schedule: Q01DX009 (ip), vehicle: saline
  T/C: 102 % of control
dose: 58.0 mg/kg/injection, schedule: Q01DX009 (ip), vehicle: carboxymethylcellulose (CMC)
  T/C: 111 % of control
dose: 58.0 mg/kg/injection, schedule: Q01DX009 (ip), vehicle: saline
  T/C: 124 % of control
dose: 88.0 mg/kg/injection, schedule: Q01DX009 (ip), vehicle: carboxymethylcellulose (CMC)
  T/C: 124 % of control
dose: 88.0 mg/kg/injection, schedule: Q01DX009 (ip), vehicle: saline
  T/C: 152 % of control
dose: 132.0 mg/kg/injection, schedule: Q01DX009 (ip), vehicle: carboxymethylcellulose (CMC)
  T/C: 113 % of control
dose: 132.0 mg/kg/injection, schedule: Q01DX009 (ip), vehicle: saline
  T/C: 152 % of control
dose: 200.0 mg/kg/injection, schedule: Q01DX009 (ip), vehicle: carboxymethylcellulose (CMC)
  T/C: 105 % of control
